In ChEMBL document CHEMBL4706768, “Discovery of Potent, Selective Triazolothiadiazole-Containing c-Met Inhibitors” (ACS Med Chem Lett, 2021):

Assays:
[1] = molecular target: Tyrosine-protein kinase Blk (Homo sapiens) (UniProt P51451); assay: Inhibition of recombinant N-terminal His6-tagged human full-length BLK expressed in Sf21 insect cells at 2 uM using Poly (Glu4-Tyr) (4:1) as substrate relative to control
[2] = molecular target: Proto-oncogene tyrosine-protein kinase ROS (Homo sapiens) (UniProt P08922); assay: Inhibition of recombinant human N-terminal His6-tagged ROS (1883 to end residues) expressed in baculovirus infected Sf21 insect cells at 2 uM using KKKSPGEYVNIEFG as substrate relative to control
[3] = molecular target: Fibroblast growth factor receptor 3 (Homo sapiens) (UniProt P22607); assay: Inhibition of recombinant human N-terminal His6-tagged FGFR3 (447 to 761 residues) expressed in Sf21 insect cells at 2 uM using poly (Glu,Tyr) (4:1) as substrate relative to control

Measured: inhibition

Sequence of Tyrosine-protein kinase Blk (Homo sapiens) (P51451 2-505 limits assumed): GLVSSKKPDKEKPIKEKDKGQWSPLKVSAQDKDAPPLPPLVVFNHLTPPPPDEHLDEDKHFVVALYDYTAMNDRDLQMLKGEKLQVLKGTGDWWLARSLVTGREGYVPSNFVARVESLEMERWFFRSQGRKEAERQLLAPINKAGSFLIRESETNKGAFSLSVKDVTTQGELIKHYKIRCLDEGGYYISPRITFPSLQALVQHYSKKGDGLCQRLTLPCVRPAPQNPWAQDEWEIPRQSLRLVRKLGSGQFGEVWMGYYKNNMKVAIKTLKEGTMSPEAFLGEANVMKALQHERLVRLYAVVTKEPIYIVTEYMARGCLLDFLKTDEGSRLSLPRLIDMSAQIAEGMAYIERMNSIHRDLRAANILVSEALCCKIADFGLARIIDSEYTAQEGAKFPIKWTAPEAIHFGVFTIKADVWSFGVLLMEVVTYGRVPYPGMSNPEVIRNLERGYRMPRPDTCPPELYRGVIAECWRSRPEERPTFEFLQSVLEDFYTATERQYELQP
Sequence of Proto-oncogene tyrosine-protein kinase ROS (Homo sapiens) (P08922 whole entry, the tested form may be a part): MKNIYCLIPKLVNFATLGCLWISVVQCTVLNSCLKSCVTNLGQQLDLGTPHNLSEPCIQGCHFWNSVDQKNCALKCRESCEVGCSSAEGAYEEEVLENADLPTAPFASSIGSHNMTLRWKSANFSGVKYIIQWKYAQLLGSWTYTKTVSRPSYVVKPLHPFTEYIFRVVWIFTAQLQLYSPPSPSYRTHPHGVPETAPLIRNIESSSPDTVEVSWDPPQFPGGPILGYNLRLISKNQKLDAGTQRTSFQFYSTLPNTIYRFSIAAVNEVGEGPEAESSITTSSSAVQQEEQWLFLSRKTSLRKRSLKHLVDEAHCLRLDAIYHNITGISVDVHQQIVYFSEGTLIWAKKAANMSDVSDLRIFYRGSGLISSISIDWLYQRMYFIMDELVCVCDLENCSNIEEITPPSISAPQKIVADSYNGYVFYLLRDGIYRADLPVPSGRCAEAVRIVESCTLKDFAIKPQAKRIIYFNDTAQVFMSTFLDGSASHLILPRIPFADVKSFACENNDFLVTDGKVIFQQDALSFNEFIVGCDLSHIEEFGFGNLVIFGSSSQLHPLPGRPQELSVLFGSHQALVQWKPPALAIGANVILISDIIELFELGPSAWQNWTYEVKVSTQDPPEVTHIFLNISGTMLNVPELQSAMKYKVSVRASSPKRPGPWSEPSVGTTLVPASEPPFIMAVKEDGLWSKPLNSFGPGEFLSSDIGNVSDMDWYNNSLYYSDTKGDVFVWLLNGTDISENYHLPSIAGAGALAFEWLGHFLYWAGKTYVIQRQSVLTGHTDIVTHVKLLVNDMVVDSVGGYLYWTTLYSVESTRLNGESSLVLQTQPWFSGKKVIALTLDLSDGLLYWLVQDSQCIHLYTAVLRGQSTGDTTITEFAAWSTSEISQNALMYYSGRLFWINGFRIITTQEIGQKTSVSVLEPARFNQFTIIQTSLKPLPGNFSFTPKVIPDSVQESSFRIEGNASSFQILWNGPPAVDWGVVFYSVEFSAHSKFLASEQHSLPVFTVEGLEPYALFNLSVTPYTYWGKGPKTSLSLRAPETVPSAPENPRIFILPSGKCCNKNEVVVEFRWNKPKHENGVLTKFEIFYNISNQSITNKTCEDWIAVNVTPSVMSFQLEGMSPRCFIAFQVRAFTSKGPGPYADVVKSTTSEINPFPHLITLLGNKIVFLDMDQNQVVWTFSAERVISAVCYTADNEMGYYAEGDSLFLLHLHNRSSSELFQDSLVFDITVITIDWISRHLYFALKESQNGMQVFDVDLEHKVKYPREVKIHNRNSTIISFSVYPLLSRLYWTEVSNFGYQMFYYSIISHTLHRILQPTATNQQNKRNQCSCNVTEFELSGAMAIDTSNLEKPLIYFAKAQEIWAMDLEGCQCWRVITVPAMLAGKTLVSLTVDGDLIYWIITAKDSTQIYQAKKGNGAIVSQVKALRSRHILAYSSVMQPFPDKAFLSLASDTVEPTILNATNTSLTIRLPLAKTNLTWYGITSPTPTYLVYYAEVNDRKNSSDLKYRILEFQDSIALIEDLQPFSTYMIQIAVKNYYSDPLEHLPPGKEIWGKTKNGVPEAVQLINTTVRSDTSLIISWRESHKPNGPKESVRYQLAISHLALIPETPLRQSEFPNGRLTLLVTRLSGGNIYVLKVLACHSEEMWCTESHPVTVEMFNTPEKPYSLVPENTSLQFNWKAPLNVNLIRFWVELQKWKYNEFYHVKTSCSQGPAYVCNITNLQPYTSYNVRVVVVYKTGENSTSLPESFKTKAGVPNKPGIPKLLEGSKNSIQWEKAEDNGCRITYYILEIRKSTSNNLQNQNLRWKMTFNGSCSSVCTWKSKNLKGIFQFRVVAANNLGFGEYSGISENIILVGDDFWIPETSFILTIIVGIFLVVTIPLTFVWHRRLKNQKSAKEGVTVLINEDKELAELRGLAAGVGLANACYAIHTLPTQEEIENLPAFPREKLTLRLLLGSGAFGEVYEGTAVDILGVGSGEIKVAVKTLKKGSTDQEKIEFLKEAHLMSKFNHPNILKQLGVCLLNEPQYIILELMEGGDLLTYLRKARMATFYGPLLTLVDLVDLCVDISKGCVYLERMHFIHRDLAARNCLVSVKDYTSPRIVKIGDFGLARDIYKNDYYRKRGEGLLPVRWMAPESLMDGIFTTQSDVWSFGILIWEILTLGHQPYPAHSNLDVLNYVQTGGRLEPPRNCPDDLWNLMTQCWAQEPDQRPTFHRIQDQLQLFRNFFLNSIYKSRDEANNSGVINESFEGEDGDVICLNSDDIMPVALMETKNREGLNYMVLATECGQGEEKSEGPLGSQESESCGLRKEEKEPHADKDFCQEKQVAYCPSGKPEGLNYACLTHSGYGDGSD
Sequence of Fibroblast growth factor receptor 3 (Homo sapiens) (P22607 23-806 limits assumed): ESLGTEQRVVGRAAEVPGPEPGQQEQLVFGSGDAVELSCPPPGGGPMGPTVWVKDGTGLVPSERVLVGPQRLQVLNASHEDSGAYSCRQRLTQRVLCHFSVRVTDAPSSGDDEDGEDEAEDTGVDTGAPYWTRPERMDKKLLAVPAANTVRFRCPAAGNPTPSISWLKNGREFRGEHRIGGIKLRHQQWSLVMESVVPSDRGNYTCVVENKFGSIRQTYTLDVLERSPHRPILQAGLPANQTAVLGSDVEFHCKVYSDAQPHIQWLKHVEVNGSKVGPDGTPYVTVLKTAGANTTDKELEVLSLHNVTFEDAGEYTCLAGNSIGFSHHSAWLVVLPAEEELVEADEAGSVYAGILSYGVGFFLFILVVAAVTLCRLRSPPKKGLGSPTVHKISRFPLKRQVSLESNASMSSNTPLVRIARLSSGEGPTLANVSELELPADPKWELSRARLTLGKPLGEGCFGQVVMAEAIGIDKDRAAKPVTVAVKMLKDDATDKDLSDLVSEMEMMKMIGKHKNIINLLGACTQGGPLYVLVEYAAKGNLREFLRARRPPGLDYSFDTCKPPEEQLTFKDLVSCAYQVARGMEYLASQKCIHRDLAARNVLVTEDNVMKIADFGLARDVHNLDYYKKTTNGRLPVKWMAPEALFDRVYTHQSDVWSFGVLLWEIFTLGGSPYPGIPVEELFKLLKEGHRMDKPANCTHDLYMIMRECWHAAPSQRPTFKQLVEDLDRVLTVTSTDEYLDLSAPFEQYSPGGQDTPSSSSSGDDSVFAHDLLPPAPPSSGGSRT

C[C@@H](c1ccc2ncccc2c1)c1nnc2sc(-c3cnn(C)c3)nn12
< 50%: all assays above
